Test results: ChEMBL document CHEMBL3046147, “Synthesis and Herbicidal Activity of 1-Arylalkyl-3-pyrrolin-2-one Derivatives” (J Pestic Sci, 2000)
Activity calls are given as the source filed them. No cut-off for these calls is given here.

What was measured:
[1] = system: Echinochloa oryzicola; test: Herbicidal activity against Echinochloa oryzicola grown in water-drained pot under greenhouse condition assessed as time duration of residual effect at 500 g /ha; assay type: functional
[2] = system: Echinochloa oryzicola; test: Herbicidal activity against Echinochloa oryzicola grown in water-drained pot under greenhouse condition assessed as time duration of residual effect at 125 g /ha; assay type: functional
[3] = system: Echinochloa oryzicola; test: Herbicidal activity against Echinochloa oryzicola under greenhouse condition assessed as time duration of residual effect at 500 g /ha; assay type: functional
[4] = system: Echinochloa oryzicola; test: Herbicidal activity against Echinochloa oryzicola under greenhouse condition assessed as time duration of residual effect at 125 g /ha; assay type: functional
[5] = system: Echinochloa oryzicola; test: Herbicidal activity against Echinochloa oryzicola grown in water-drained pot under greenhouse condition assessed as growth inhibition at 125 g /ha measured after 6 days; assay type: functional, organism-based
[6] = system: Echinochloa oryzicola; test: Herbicidal activity against Echinochloa oryzicola under greenhouse condition assessed as growth inhibition at 500 g /ha measured after 42 days; assay type: functional, organism-based
[7] = system: Echinochloa oryzicola; test: Herbicidal activity against Echinochloa oryzicola under greenhouse condition assessed as growth inhibition at 500 g /ha measured after 27 days; assay type: functional, organism-based
[8] = system: Echinochloa oryzicola; test: Herbicidal activity against Echinochloa oryzicola under greenhouse condition assessed as growth inhibition at 500 g /ha measured after 33 days; assay type: functional, organism-based
[9] = system: Echinochloa oryzicola; test: Herbicidal activity against Echinochloa oryzicola under greenhouse condition assessed as growth inhibition at 500 g /ha measured after 20 days; assay type: functional, organism-based
[10] = system: Echinochloa oryzicola; test: Herbicidal activity against Echinochloa oryzicola under greenhouse condition assessed as growth inhibition at 500 g /ha measured after 13 days; assay type: functional, organism-based
[11] = system: Echinochloa oryzicola; test: Herbicidal activity against Echinochloa oryzicola under greenhouse condition assessed as growth inhibition at 500 g /ha measured after 6 days; assay type: functional, organism-based
[12] = system: Echinochloa oryzicola; test: Herbicidal activity against Echinochloa oryzicola under greenhouse condition assessed as growth inhibition at 125 g /ha measured after 42 days; assay type: functional, organism-based
[13] = system: Echinochloa oryzicola; test: Herbicidal activity against Echinochloa oryzicola under greenhouse condition assessed as growth inhibition at 125 g /ha measured after 33 days; assay type: functional, organism-based
[14] = system: Echinochloa oryzicola; test: Herbicidal activity against Echinochloa oryzicola under greenhouse condition assessed as growth inhibition at 125 g /ha measured after 27 days; assay type: functional, organism-based
[15] = system: Echinochloa oryzicola; test: Herbicidal activity against Echinochloa oryzicola under greenhouse condition assessed as growth inhibition at 125 g /ha measured after 20 days; assay type: functional, organism-based
[16] = system: Echinochloa oryzicola; test: Herbicidal activity against Echinochloa oryzicola under greenhouse condition assessed as growth inhibition at 125 g /ha measured after 6 days; assay type: functional, organism-based
[17] = system: Echinochloa oryzicola; test: Herbicidal activity against Echinochloa oryzicola under greenhouse condition assessed as growth inhibition at 125 g /ha measured after 13 days; assay type: functional, organism-based
[18] = system: Echinochloa oryzicola; test: Herbicidal activity against Echinochloa oryzicola grown in water-drained pot under greenhouse condition assessed as growth inhibition at 500 g /ha measured after 42 days; assay type: functional, organism-based
[19] = system: Echinochloa oryzicola; test: Herbicidal activity against Echinochloa oryzicola grown in water-drained pot under greenhouse condition assessed as growth inhibition at 500 g /ha measured after 33 days; assay type: functional, organism-based
[20] = system: Echinochloa oryzicola; test: Herbicidal activity against Echinochloa oryzicola grown in water-drained pot under greenhouse condition assessed as growth inhibition at 500 g /ha measured after 27 days; assay type: functional, organism-based
[21] = system: Echinochloa oryzicola; test: Herbicidal activity against Echinochloa oryzicola grown in water-drained pot under greenhouse condition assessed as growth inhibition at 500 g /ha measured after 20 days; assay type: functional, organism-based
[22] = system: Echinochloa oryzicola; test: Herbicidal activity against Echinochloa oryzicola grown in water-drained pot under greenhouse condition assessed as growth inhibition at 500 g /ha measured after 13 days; assay type: functional, organism-based
[23] = system: Echinochloa oryzicola; test: Herbicidal activity against Echinochloa oryzicola grown in water-drained pot under greenhouse condition assessed as growth inhibition at 500 g /ha measured after 6 days; assay type: functional, organism-based
[24] = system: Echinochloa oryzicola; test: Herbicidal activity against Echinochloa oryzicola grown in water-drained pot under greenhouse condition assessed as growth inhibition at 125 g /ha measured after 42 days; assay type: functional, organism-based
[25] = system: Echinochloa oryzicola; test: Herbicidal activity against Echinochloa oryzicola grown in water-drained pot under greenhouse condition assessed as growth inhibition at 125 g /ha measured after 33 days; assay type: functional, organism-based
[26] = system: Echinochloa oryzicola; test: Herbicidal activity against Echinochloa oryzicola grown in water-drained pot under greenhouse condition assessed as growth inhibition at 125 g /ha measured after 27 days; assay type: functional, organism-based
[27] = system: Echinochloa oryzicola; test: Herbicidal activity against Echinochloa oryzicola grown in water-drained pot under greenhouse condition assessed as growth inhibition at 125 g /ha measured after 13 days; assay type: functional, organism-based
[28] = system: Echinochloa oryzicola; test: Herbicidal activity against Echinochloa oryzicola grown in water-drained pot under greenhouse condition assessed as growth inhibition at 125 g /ha measured after 20 days; assay type: functional, organism-based
[29] = system: Echinochloa oryzicola; test: Pre-emergence herbicide activity against Echinochloa oryzicola under greenhouse condition measured after 14 to 20 days; assay type: functional
[30] = system: Oryza sativa; test: Phytotoxicity against two-leaf stage Oryza sativa cv. Nihonbare (rice) planted 1 cm depth measured after […]; assay type: organism-based; details: in vivo
[31] = system: Oryza sativa; test: Phytotoxicity against two-leaf stage Oryza sativa cv. Nihonbare (rice) planted 3 cm depth measured after […]; assay type: organism-based; details: in vivo
[32] = system: Sagittaria pygmaea; test: Herbicide activity against Sagittaria pygmaea under greenhouse condition compound treated at 0.5 leaf-stage measured after 14 to 20 days; assay type: functional
[33] = system: Schoenoplectiella juncoides; test: Herbicide activity against Schoenoplectiella juncoides under greenhouse condition compound treated at emergence-stage measured after 14 to 20 days; assay type: functional
[34] = system: Echinochloa oryzicola; test: Herbicide activity against Echinochloa oryzicola under greenhouse condition compound treated at 2 leaf-stage measured after 14 to 20 days; assay type: functional

## CCCOCCN(C(=O)CCl)c1c(CC)cccc1CC [PRETILACHLOR]
[1]
  Time: 16 days
[2]
  Time: 6 days
[3]
  Time: 27 days
[4]
  Time: 13 days
[5]
  growth inhibition (GI): Active
[6]
  growth inhibition (GI): inactive
[7]
  growth inhibition (GI): Active
[8]
  growth inhibition (GI): Active
[9]
  growth inhibition (GI): Active
[10]
  growth inhibition (GI): Active
[11]
  growth inhibition (GI): Active
[12]
  growth inhibition (GI): inactive
[13]
  growth inhibition (GI): inactive
[14]
  growth inhibition (GI): inactive
[15]
  growth inhibition (GI): Active
[16]
  growth inhibition (GI): Active
[17]
  growth inhibition (GI): Active
[18]
  growth inhibition (GI): inactive
[19]
  growth inhibition (GI): Active
[20]
  growth inhibition (GI): Active
[21]
  growth inhibition (GI): Active
[22]
  growth inhibition (GI): Active
[23]
  growth inhibition (GI): Active
[24]
  growth inhibition (GI): inactive
[25]
  growth inhibition (GI): inactive
[26]
  growth inhibition (GI): inactive
[27]
  growth inhibition (GI): Active
[28]
  growth inhibition (GI): inactive

## CC1=C(c2ccccc2)C(=O)N(C(C)(C)c2nc3ccc(Cl)cc3s2)C1
[29]
  MED: 1.25 g/acre
[30]
  MTD: 20 g/acre
[31]
  MTD: 40 g/acre
[32]
  MED: 80 g/acre
[33]
  MED: 160 g/acre
[34]
  MED: <5 g/acre

## COc1ccc(OC)c(C2=C(C)CN(C(C)(C)c3nc4ccccc4s3)C2=O)c1
[29]
  MED: 80 g/acre
[30]
  MTD: 10 g/acre
[31]
  MTD: 20 g/acre
[32]
  MED: 160 g/acre
[33]
  MED: 160 g/acre
[34]
  MED: <5 g/acre

## CC1=C(c2ccccc2)C(=O)N(C(C)(C)c2nc3c(C)cccc3s2)C1
[29]
  MED: 2.5 g/acre
[30]
  MTD: 5 g/acre
[31]
  MTD: 20 g/acre
[32]
  MED: 80 g/acre
[33]
  MED: 160 g/acre
[34]
  MED: <5 g/acre

## CC1=C(c2ccccc2)C(=O)N(C(C)(C)c2nc3cc(Cl)ccc3s2)C1
[29]
  MED: 0.625 g/acre
[30]
  MTD: 10 g/acre
[31]
  MTD: 40 g/acre
[32]
  MED: 80 g/acre
[33]
  MED: 40 g/acre
[34]
  MED: <5 g/acre

## CC1=C(c2ccc(-c3ccccc3)cc2)C(=O)N(C(C)(C)c2nc3ccccc3s2)C1
[29]
  MED: <10 g/acre
[30]
  MTD: 80 g/acre
[31]
  MTD: 80 g/acre
[32]
  MED: 160 g/acre
[33]
  MED: 160 g/acre
[34]
  MED: <5 g/acre

## CC1=C(c2ccccc2)C(=O)N(C(C)(C)c2nc3cc(C)ccc3s2)C1
[29]
  MED: 10 g/acre
[30]
  MTD: 2.5 g/acre
[31]
  MTD: 40 g/acre
[32]
  MED: 10 g/acre
[33]
  MED: 20 g/acre
[34]
  MED: <5 g/acre

## CC1=C(c2ccccc2)C(=O)N(C(C)(C)c2csc(-c3ccccc3)n2)C1
[29]
  MED: 40 g/acre
[30]
  MTD: 40 g/acre
[31]
  MTD: 40 g/acre
[32]
  MED: 40 g/acre
[33]
  MED: 40 g/acre
[34]
  MED: <5 g/acre

## CC1=C(c2ccccc2C(F)(F)F)C(=O)N(C(C)(C)c2nc3ccccc3s2)C1
[29]
  MED: 20 g/acre
[30]
  MTD: 20 g/acre
[31]
  MTD: 40 g/acre
[32]
  MED: 5 g/acre
[33]
  MED: 80 g/acre
[34]
  MED: <5 g/acre

## CC1=C(c2ccccc2C#N)C(=O)N(C(C)(C)c2nc3ccccc3s2)C1
[29]
  MED: 10 g/acre
[30]
  MTD: > 5 g/acre
[31]
  MTD: 5 g/acre
[32]
  MED: 40 g/acre
[33]
  MED: 5 g/acre
[34]
  MED: <5 g/acre

## CC1=C(c2cccnc2)C(=O)N(C(C)(C)c2nc3ccccc3s2)C1
[29]
  MED: 2.5 g/acre
[30]
  MTD: 5 g/acre
[31]
  MTD: 10 g/acre
[32]
  MED: <5 g/acre
[33]
  MED: 2.5 g/acre
[34]
  MED: <5 g/acre
